In general, EC50 refers to the concentration that produces a half-maximal response. A word on the Kd: it is the free concentration of one partner at which half of the binding sites on the other are occupied at equilibrium, for simple one-to-one binding. A word on the CC50: it is the concentration giving 50% cytotoxicity. Read a low CC50 as harm at low concentration. The term inhibition denotes the change of the read-out against control, counted positive when it falls.

Series [1] has as its system P. falciparum Dd2 (multidrug-resistant). In words: In vitro P. falciparum growth inhibition. The conditions noted are these: Plasmodium falciparum, DD2, 72 h, read-out: EC50 PfDd2. The series is classed as cell-based.
In series [2] the test system is P. falciparum 3D7 (chloroquine-sensitive). In words: In vitro P. falciparum growth inhibition. The series is classed as cell-based. The settings on record: Plasmodium falciparum; for EC50: 3D7, 72 h, read-out: EC50 Pf3D7; for inhibition at 5 µM: 3D7, read-out: inhibition of parasite growth.
The conditions of series [3]: cited from earlier work.
The next series concerns the target PfCDPK1. The conditions noted are these: read-out: KD PfCDPK1; cited from earlier work.
A short description of series [4]: Cytotoxicity, MTT reduction method, COS-7. The conditions noted are these: monkey, COS-7 cells. It is filed as cell-based. A general note: Tetrazolium assays rely on reduction of a dye to a coloured formazan, in cell work by metabolically active cells.
A short description of series [5]: Cytotoxicity, MTT reduction method, HepG2. It is filed as cell-based. The conditions noted are these: human, HepG2 cells.

With `CCN(CC)CCCC(C)Nc1ccnc2cc(Cl)ccc12` (stereo not drawn) [Chloroquine, reference compound], the results for the EC50 in series [1] and in series [2] were 0.057 µM and 0.009 µM, respectively.
On to `CS(=O)(=O)c1ccc(-c2cnc(N)c(-c3ccc(C(F)(F)F)nc3)c2)cc1` [MMV390048], for which, in series [3], the “solubility (in words)” value is given as “poor solubility”.
For `Cc1cn(-c2cc(NC(=O)c3ccc(C)c(Nc4nccc(-c5cccnc5)n4)c3)cc(C(F)(F)F)c2)cn1` [Nilotinib], the Kd at PfCDPK1 was 0.79 µM.
As for `O=C1Nc2ccccc2C1=Cc1ccc[nH]1` [(3), 3-(1H-pyrrol-2-ylmethylidene)-1H-indol-2-one], the CC50 at 72 h in series [4] was 32.8 ± 10.8 µM; in series [5], 13.5 ± 7.6 µM. For the same compound, the 50% effective concentration (EC50) is 9.8 ± 1.1 µM in series [1] and 10.3 ± 1.3 µM in series [2]. In series [2], the inhibition at 5 µM is above 30%.
Take `COc1ccc(-c2c(C)nn3c(NCCN4CCOCC4)cc(C)nc23)cc1OC` [(6), 3-(3,4-dimethoxyphenyl)-2,5-dimethyl-N-(2-morpholin-4-ylethyl)pyrazolo[1,5-a]pyrimidin-7-amine]: in series [1], the EC50 came out at 17.9 ± 5.3 µM. Besides, in series [2], the EC50 is 13.8 ± 3.8 µM and the inhibition at 5 µM is above 30%.

(Values after publication PMC9293725 (Computational and Structural Biotechnology Journal, 2022).)
